From US20250177576A1, “COMPOUNDS FOR THE MEASUREMENT OF THE OXYGEN CONCENTRATION” (Center for Neuromusculoskeletal Restorative Medicine Limited, priority 2022, published 2025)

How the values were obtained:
Assay type in all cases: physicochemical
[1] = Photoluminescence spectra in dichloromethane, oxygen-free vs ambient; conditions: 10 μM in dichloromethane, excitation 500 nm
Experimental: (§1) Proton and carbon NMR spectra were measured in CDCl3 on a Bruker AVANCE III 400 MHz NMR Spectrometer and tetramethylsilane (TMS) was exploited as an internal standard for calibrating the chemical shift. Electrospray Ionization Quadrupole-Time-of-Flight (ESI-Q-TOF) mass spectrometry was performed on an Agilent 6540 Liquid chromatography—ESI-Q-TOF Mass Spectrometer. UV/Vis absorption spectroscopy was performed on a Molecular Devices SpectraMax M2e in different solutions at 293 K. Fluorescence emission spectra were taken from a LS-55 fluorescence spectrophotometer (PerkinElmer) at 293 K.

[2] = PL spectra in water/tetrahydrofuran binary mixtures (aggregation, AIE/ACQ)
Experimental: as §1
In view of the co-planar chemical structure of Pt(ttiq)(acac), it was interesting to look for any aggregation induced emission (AIE) or aggregation caused quenching (ACQ) property. […] When the water fraction further increased to or above 80%, the mixture formed clearly observable precipitates in the cuvette.
In order to observe whether these nanoaggregates were still readily quenched by oxygen, the PL spectra of the nanoaggregates' solution with a fwater of 60% was compared before and after the deaeration.

[3] = Oxygen quenching calibration (Stern-Volmer) in tetrahydrofuran; conditions: 10 μM in tetrahydrofuran
Experimental: The photoluminescence spectra of the Pt(ttiq)(acac) (10 μM) in tetrahydrofuran in different oxygen concentrations upon 500 nm photoexcitation is presented in FIG. 2A. The phosphorescence peak intensity (698 nm) increases while the oxygen level of the solution decreases, whereas the fluorescence (528 nm) remains independent of the oxygen level. The oxygen quenching of the phosphorescence may be interpreted using Stern-Volmer relationship, in which (I0/I=1+KSV·[O2]) where I: phosphorescence intensity; I0: phosphorescence intensity at 0% of oxygen; KSV: quencher coefficient; [O2]: oxygen concentration. The data of FIG. 2A are fitted with this relationship in FIG. 2B and thus the I0 could be estimated from the equation of (y=133.75801/(1+0.0371−x); adjusted R^2=0.98066). Therefore, a linear correlation of I0/I against [O2](y=1.10962+0.03545 x; adjusted R^2=0.99036) could be established as in FIG. 2C. Mathematically, the Stern-Volmer relationship could be further derived to (R0/R=1+KSV·[O2]) whereas the fluorescence peak intensity is a constant, and thus the R0 could be estimated from the equation of (y=2.04177/(1+0.03267−x); adjusted R^2=0.97785) in FIG. 2D. Similarly, a linear correlation of R0/R against [O2](y=1.07595+0.03165−x; adjusted R^2=0.98135) could be established as in FIG. 2E. In short, the linear correlation between the ratiometric photoluminescence signal and oxygen concentration (%) obtained from FIG. 2E may be utilized to analyze the oxygen content of a tetrahydrofuran sample without the concerns of concentration dependency and absolute intensity value.
The oxygen concentration (%) or partial pressure of solution samples were varied by O2/N2 gas-purging with a syringe needle and natural ventilation (or gradually adding sodium sulfite (Na2SO3) solution as an oxygen consuming chemical reagent). The instantaneous oxygen concentration (%) of aqueous samples (or oxygen partial pressure values of tetrahydrofuran solutions) at 293 K were measured using pre-calibrated FireSting®-GO2 oxygen meter (PyroScience) coupled with a TDIP15 temperature probe (PyroScience) and a fiber optic sensor (OXR430-OI, or OXSOLV for organic solvent measurement) (PyroScience). The photoluminescence signals of the nano-sensor solution at different oxygen concentrations (%) (or partial pressures) were then measured by the fluorescence spectrophotometer and confocal laser scanning microscope. The calibration curves were established using the signal intensity at 528 nm and 698 nm from the PL spectra, and integrated signals' intensity from customized green channel (507-609 nm) and red channel (657-740 nm) from the CLSM images.

- constant PL peak (fluorescence) wavelength ([1]; disregarding oxygen content): 528 nm
- maximum phosphorescence intensity wavelength ([1]; oxygen-sensitive peak): 698 nm
- water fraction at which clearly observable precipitates form ([2]; water/tetrahydrofuran mixture, 10 μM): ≥ 80%
- fluorescence peak wavelength ([3]; excitation 500 nm): 528 nm
- phosphorescence peak wavelength ([3]; excitation 500 nm): 698 nm
Compound: CC(=O)C=C(C)[O][Pt][c]1c(-c2nccc3ccccc23)sc2ccsc12 [Pt(ttiq)(acac)]
- oxygen response of nanoaggregates ([2]; fwater 60%, before and after deaeration): still very responsive to the oxygen content
- aggregation induced emission property ([2]; water fraction 0 to 70% in tetrahydrofuran, 10 μM, ambient, excitation 500 nm): AIE-active species in the region of 650-750 nm
- quencher coefficient KSV from fit of PL intensity ratio (FIG. 2D) [3]: 0.03267
- slope of linear correlation I0/I against [O2] (FIG. 2C) [3]: 0.03545
- slope of linear correlation R0/R against [O2] (FIG. 2E calibration curve) [3]: 0.03165
- quencher coefficient KSV from fit of phosphorescence intensity (FIG. 2B) ([3]; vs oxygen partial pressure): 0.0371
